Assay results from patent US20180368410A1, “MICROBIOCIDAL OXADIAZOLE DERIVATIVES” (SYNGENTA PARTICIPATIONS AG, priority 2015, published 2018).

Columns and labels:
[1] = tested on: Puccinia recondita f. Sp. Triticil; assay: Puccinia recondita f. sp. tritici / wheat / leaf disc curative (brown rust); type: in vivo, Puccinia recondita f. sp. tritici on wheat cv. Kanzler; settings: foliar, 200 ppm in the applied formulation, applied 1 day after inoculation, assessed 6 to 8 days after application, vs untreated control leaf disks, read-out: disease control
Experimental: (§1) Leaf disks or leaf segments of various plant species are cut from plants grown in a greenhouse. The cut leaf disks or segments are placed in multiwell plates (24-well format) onto water agar. The leaf disks are sprayed with a test solution before (preventative) or after (curative) inoculation. Compounds to be tested are prepared as DMSO solutions (max. 10 mg/ml) which are diluted to the appropriate concentration with 0.025% Tween20 just before spraying. The inoculated leaf disks or segments are incubated under defined conditions (temperature, relative humidity, light, etc.) according to the respective test system. A single evaluation of disease level is carried out 3 to 14 days after inoculation, depending on the pathosystem. Percent disease control relative to the untreated check leaf disks or segments is then calculated.
Wheat leaf segments cv. Kanzler are placed on agar in multiwell plates (24-well format). The leaf segments are then inoculated with a spore suspension of the fungus. Plates were stored in darkness at 19° C. and 75% relative humidity. The formulated test compound diluted in water was applied 1 day after inoculation. The leaf segments were incubated at 19° C. and 75% relative humidity under a light regime of 12 hours light/12 hours darkness in a climate cabinet and the activity of a compound was assessed as percent disease control compared to untreated when an appropriate level of disease damage appears in untreated check leaf segments (6 to 8 days after application).
(§2) The following compounds at 200 ppm in the applied formulation give at least 80% disease control in this test when compared to untreated control leaf disks under the same conditions, which show extensive disease development.

[2] = tested on: Glomerella Lacenarium (Colletotrichum lacenarium); assay: Glomerella lagenarium (Colletotrichum lagenarium) liquid culture / cucumber / preventative (anthracnose); type: cell-based; settings: 20 ppm in the applied formulation, liquid culture in PDB, 24° C., inhibition of growth measured photometrically 3 to 4 days after application, vs untreated control, read-out: disease control
Experimental: Mycelia fragments or conidia suspensions of a fungus prepared either freshly from liquid cultures of the fungus or from cryogenic storage, are directly mixed into nutrient broth. DMSO solutions of the test compound (max. 10 mg/ml) are diluted with 0.025% Tween20 by a factor of 50 and 10 μl of this solution is pipetted into a microtiter plate (96-well format). The nutrient broth containing the fungal spores/mycelia fragments is then added to give an end concentration of the tested compound. The test plates are incubated in the dark at 24° C. and 96% relative humidity. The inhibition of fungal growth is determined photometrically after 2 to 7 days, depending on the pathosystem, and percent antifungal activity relative to the untreated check is calculated.
Conidia of the fungus from cryogenic storage are directly mixed into nutrient broth (PDB—potato dextrose broth). After placing a (DMSO) solution of test compound into a microtiter plate (96-well format), the nutrient broth containing the fungal spores is added. The test plates are incubated at 24° C. and the inhibition of growth is measured photometrically 3 to 4 days after application.
The following compounds at 20 ppm in the applied formulation give at least 80% disease control in this test when compared to untreated control under the same conditions, which show extensive disease development.

[3] = tested on: Puccinia recondita f. Sp. Tritici; assay: Puccinia recondita f. sp. tritici / wheat / leaf disc preventative (brown rust); type: in vivo, Puccinia recondita f. sp. tritici on wheat cv. Kanzler; settings: foliar, 200 ppm in the applied formulation, inoculated 1 day after application, assessed 7 to 9 days after application, vs untreated control leaf disks, read-out: disease control
Experimental: as §1, with “calculated. Wheat leaf segments cv. Kanzler were placed on agar in multiwell plates (24-well format) and sprayed with the formulated test compound diluted in water. The leaf disks were inoculated with a spore suspension of the fungus 1 day after application. The inoculated leaf segments were incubated at 19′C and 75% relative humidity (rh) under a light regime of 12 hours light/12 hours darkness in a climate cabinet and the activity of a compound was assessed as percent disease control compared to untreated when an appropriate level of disease damage appears in untreated check leaf segments (7 to 9 days after application). The following compounds at 200 ppm in the applied formulation give at least 80% disease control in this test when compared to untreated control leaf disks under the same conditions, which show extensive disease development.” for “calculated.”

Phakopsora pachyrhizi = Phakopsora pachyrhizi / soybean / leaf disc preventative (Asian soybean rust); type: in vivo, Phakopsora pachyrhizi on soybean; settings: foliar, 200 ppm in the applied formulation, inoculated one day after application, assessed 12 to 14 days after application, vs untreated control leaf disks, read-out: disease control
Experimental: as §1
Soybean leaf disks are placed on water agar in multiwell plates (24-well format) and sprayed with the formulated test compound diluted in water. One day after application leaf discs are inoculated by spraying a spore suspension on the lower leaf surface. After an incubation period in a climate cabinet of 24-36 hours in darkness at 20° C. and 75% rh leaf disc are kept at 20° C. with 12 h light/day and 75% rh. The activity of a compound is assessed as percent disease control compared to untreated when an appropriate level of disease damage appears in untreated check leaf disks (12 to 14 days after application).
as §2

O=C(CC1CC1)NCc1ccc(-c2noc(C(F)(F)F)n2)c(F)c1 [Compound 1.92, 2-cyclopropyl-N-[[3-fluoro-4-[5-(trifluoromethyl)-1,2,4-oxadiazol-3-yl]phenyl]methyl]acetamide]
≥ 80%: pest or weed control at 200 ppm [1] | inhibition of growth at 20 ppm [2] | pest or weed control at 200 ppm [3] | pest or weed control at 200 ppm (Phakopsora pachyrhizi)

CC1(C(=O)NCc2ccc(-c3noc(C(F)(F)F)n3)c(F)c2F)CC1 [Compound 1.78, N-[[2,3-difluoro-4-[5-(trifluoromethyl)-1,2,4-oxadiazol-3-yl]phenyl]methyl]-1-methyl-cyclopropanecarboxamide]
≥ 80%: pest or weed control at 200 ppm [1] | inhibition of growth at 20 ppm [2] | pest or weed control at 200 ppm [3] | pest or weed control at 200 ppm (Phakopsora pachyrhizi)

O=C(NCc1ccc(-c2noc(C(F)(F)F)n2)c(F)c1)C1CC1(F)F (centres unmarked) [Compound 1.91, 2,2-difluoro-N-[[3-fluoro-4-[5-(trifluoromethyl)-1,2,4-oxadiazol-3-yl]phenyl]methyl] cyclopropanecarboxamide]
≥ 80%: pest or weed control at 200 ppm [1] | inhibition of growth at 20 ppm [2] | pest or weed control at 200 ppm [3] | pest or weed control at 200 ppm (Phakopsora pachyrhizi)

CC1(C(=O)NCc2ccc(-c3noc(C(F)(F)F)n3)c(F)c2)CC1 [Compound 1.65, N-[[3-fluoro-4-[5-(trifluoromethyl)-1,2,4-oxadiazol-3-yl]phenyl]methyl]-1-methyl-cyclopropanecarboxamide]
≥ 80%: pest or weed control at 200 ppm [1] | inhibition of growth at 20 ppm [2] | pest or weed control at 200 ppm [3] | pest or weed control at 200 ppm (Phakopsora pachyrhizi)

CC1(C(=O)NCc2ccc(-c3noc(C(F)(F)F)n3)cc2)CC1 [Compound 1.25, 1-methyl-N-[[4-[5-(trifluoromethyl)-1,2,4-oxadiazol-3-yl]phenyl]methyl] cyclopropanecarboxamide]
≥ 80%: pest or weed control at 200 ppm [1] | inhibition of growth at 20 ppm [2] | pest or weed control at 200 ppm [3] | pest or weed control at 200 ppm (Phakopsora pachyrhizi)

O=C(NCc1ccc(-c2noc(C(F)(F)F)n2)cc1)C1CCCCC1 [Compound 1.10, N-[[4-[5-(trifluoromethyl)-1,2,4-oxadiazol-3-yl]phenyl]methyl] cyclohexanecarboxamide]
≥ 80%: inhibition of growth at 20 ppm [2] | pest or weed control at 200 ppm [3] | pest or weed control at 200 ppm (Phakopsora pachyrhizi)

CC1(C(=O)NCCc2ccc(-c3noc(C(F)(F)F)n3)cc2)CC1 [Compound 1.103, 1-methyl-N-[2-[4-[5-(trifluoromethyl)-1,2,4-oxadiazol-3-yl]phenyl]ethyl] cyclopropanecarboxamide]
≥ 80%: inhibition of growth at 20 ppm [2] | pest or weed control at 200 ppm [3] | pest or weed control at 200 ppm (Phakopsora pachyrhizi)

CC1CC1C(=O)NCc1ccc(-c2noc(C(F)(F)F)n2)c(F)c1F (centres unmarked) [Compound 1.77, N-[[2,3-difluoro-4-[5-(trifluoromethyl)-1,2,4-oxadiazol-3-yl]phenyl]methyl]-2-methyl-cyclopropanecarboxamide]
≥ 80%: inhibition of growth at 20 ppm [2] | pest or weed control at 200 ppm [3] | pest or weed control at 200 ppm (Phakopsora pachyrhizi)

O=C(NCc1ccc(-c2noc(C(F)(F)F)n2)cc1F)C1CC1 [Compound 1.47, N-[[2-fluoro-4-[5-(trifluoromethyl)-1,2,4-oxadiazol-3-yl]phenyl]methyl] cyclopropanecarboxamide]
≥ 80%: pest or weed control at 200 ppm [1] | inhibition of growth at 20 ppm [2] | pest or weed control at 200 ppm [3]

O=C(NCc1ccc(-c2noc(C(F)(F)F)n2)c(F)c1F)C1CCOC1 (centres unmarked) [Compound 1.83, N-[[2,3-difluoro-4-[5-(trifluoromethyl)-1,2,4-oxadiazol-3-yl]phenyl]methyl] tetrahydrofuran-3-carboxamide]
≥ 80%: pest or weed control at 200 ppm [1] | inhibition of growth at 20 ppm [2] | pest or weed control at 200 ppm [3]

O=C(NCc1ccc(-c2noc(C(F)(F)F)n2)cn1)c1ccccc1Cl [Compound 1.44, 2-chloro-N-[[5-[5-(trifluoromethyl)-1,2,4-oxadiazol-3-yl]-2-pyridyl]methyl]benzamide]
≥ 80%: pest or weed control at 200 ppm [1] | inhibition of growth at 20 ppm [2] | pest or weed control at 200 ppm [3]

CC1CC1C(=O)NCc1ccc(-c2noc(C(F)(F)F)n2)cn1 (centres unmarked) [Compound 1.89, 2-methyl-N-[[5-[5-(trifluoromethyl)-1,2,4-oxadiazol-3-yl]-2-pyridyl]methyl] cyclopropanecarboxamide]
≥ 80%: pest or weed control at 200 ppm [1] | inhibition of growth at 20 ppm [2] | pest or weed control at 200 ppm [3]

O=C(NCc1ccc(-c2noc(C(F)(F)F)n2)cn1)C1CCCO1 (centres unmarked) [Compound 1.46, N-[[5-[5-(trifluoromethyl)-1,2,4-oxadiazol-3-yl]-2-pyridyl]methyl]tetrahydrofuran-2-carboxamide]
≥ 80%: pest or weed control at 200 ppm [1] | inhibition of growth at 20 ppm [2] | pest or weed control at 200 ppm [3]

CC1(C(=O)NCc2ccc(-c3noc(C(F)(F)F)n3)c(F)c2F)COC1 [Compound 1.85, N-[[2,3-difluoro-4-[5-(trifluoromethyl)-1,2,4-oxadiazol-3-yl]phenyl]methyl]-3-methyl-oxetane-3-carboxamide]
≥ 80%: pest or weed control at 200 ppm [1] | inhibition of growth at 20 ppm [2] | pest or weed control at 200 ppm [3]

O=C(NCc1ccc(-c2noc(C(F)(F)F)n2)cn1)C1CC1 [Compound 1.45, N-[[5-[5-(trifluoromethyl)-1,2,4-oxadiazol-3-yl]-2-pyridyl]methyl] cyclopropanecarboxamide]
≥ 80%: pest or weed control at 200 ppm [1] | inhibition of growth at 20 ppm [2] | pest or weed control at 200 ppm [3]

O=C(NCc1ccc(-c2noc(C(F)(F)F)n2)cn1)C1CC1(F)F (centres unmarked) [Compound 1.86, 2,2-difluoro-N-[[5-[5-(trifluoromethyl)-1,2,4-oxadiazol-3-yl]-2-pyridyl]methyl] cyclopropanecarboxamide]
≥ 80%: pest or weed control at 200 ppm [1] | inhibition of growth at 20 ppm [2] | pest or weed control at 200 ppm [3]
